Measured values published in ChEMBL document CHEMBL4396974, “Synthesis and evaluation of a novel quinoline-triazole analogs for antitubercular properties via molecular hybridization approach” (Bioorg Med Chem Lett, 2019).

Columns and labels:
Conditions in all cases: read-out: INH
[1] = Cytotoxicity against human PANC1 cells at 10 uM measured after 48 hrs by sulforhodamine B assay relative to control; type: cell-based, PANC-1
[2] = Cytotoxicity against human HEK293 cells at 10 uM measured after 48 hrs by sulforhodamine B assay relative to control; type: cell-based
[3] = Cytotoxicity against human SKOV3 cells at 10 uM measured after 48 hrs by sulforhodamine B assay relative to control; type: cell-based, SK-OV-3
[4] = Cytotoxicity against human HeLa cells at 10 uM measured after 48 hrs by sulforhodamine B assay relative to control; type: cell-based
[5] = Cytotoxicity against human PC3 cells at 10 uM measured after 48 hrs by sulforhodamine B assay relative to control; type: cell-based, PC-3
[6] = Cytotoxicity against human PANC1 cells at 2 uM measured after 48 hrs by sulforhodamine B assay relative to control; type: cell-based, PANC-1
[7] = Cytotoxicity against human SKOV3 cells at 2 uM measured after 48 hrs by sulforhodamine B assay relative to control; type: cell-based, SK-OV-3
[8] = Cytotoxicity against human PC3 cells at 2 uM measured after 48 hrs by sulforhodamine B assay relative to control; type: cell-based, PC-3
[9] = Cytotoxicity against human HEK293 cells at 2 uM measured after 48 hrs by sulforhodamine B assay relative to control; type: cell-based
[10] = Cytotoxicity against human HeLa cells at 2 uM measured after 48 hrs by sulforhodamine B assay relative to control; type: cell-based

Structure (SMILES)	cytotoxicity at 48 h, 10 µM [1] [%]	cytotoxicity at 48 h, 10 µM [2] [%]	cytotoxicity at 48 h, 10 µM [3] [%]	cytotoxicity at 48 h, 10 µM [4] [%]	cytotoxicity at 48 h, 10 µM [5] [%]	cytotoxicity at 48 h, 2 µM [6] [%]	cytotoxicity at 48 h, 2 µM [7] [%]	cytotoxicity at 48 h, 2 µM [8] [%]	cytotoxicity at 48 h, 2 µM [9] [%]	cytotoxicity at 48 h, 2 µM [10] [%]
CCCCCc1cn(C(c2ccccc2)c2cc3cc(Br)ccc3nc2OC)nn1 (stereo not given)	5.07	-2	10.5	-9.81	11.4					
COc1nc2ccc(Br)cc2cc1C(c1ccccc1)n1cc(-c2ccc(Br)cc2)nn1 (stereo not given)	10.4	6.28	13.4	6.92	7.43					
COc1nc2ccc(Br)cc2cc1C(c1ccccc1)n1cc(-c2ccc(OC(F)(F)F)cc2)nn1 (stereo not given)	11.7	5.8	14.8	-2.24	21.6					
COc1nc2ccc(Br)cc2cc1C(c1ccccc1)n1cc(C2CC2)nn1 (stereo not given)	21.8	8.22	3.52	-5.84	22.6					
COc1nc2ccc(Br)cc2cc1C(c1ccccc1)n1cc(-c2ccc(F)cc2)nn1 (stereo not given)	14.9	4.04	14.3	4.27	16.4					
COc1nc2ccc(Br)cc2cc1C(c1ccccc1)n1cc(CCCO)nn1 (stereo not given)	25.5	27.4	13.8	11.3	14.7					
CCCCCCc1cn(C(c2ccccc2)c2cc3cc(Br)ccc3nc2OC)nn1 (stereo not given)	6.08	-3.17	7.17	-0.97	2.32					
COc1nc2ccc(Br)cc2cc1C(c1ccccc1)n1cc(CCCCCO)nn1 (stereo not given)	19.6	7.96	8.69	1.08	12.9					
COc1nc2ccc(Br)cc2cc1C(c1ccccc1)n1cc(-c2ccccc2C(F)(F)F)nn1 (stereo not given)	11.4	14.3	9.55	-1.3	17.4					
CCCCc1cn(C(c2ccccc2)c2cc3cc(Br)ccc3nc2OC)nn1 (stereo not given)	5.46	-3.47	11.1	-2.87	5.54					
CCOC(=O)c1cn(C(c2ccccc2)c2cc3cc(Br)ccc3nc2OC)nn1 (stereo not given)	15.4	2	2.01	-3.67	16.1					
COc1nc2ccc(Br)cc2cc1C(c1ccccc1)n1cc(CCO)nn1 (stereo not given)	19.8	4.54	8.46	0.85	15.5					
COc1nc2ccc(Br)cc2cc1C(c1ccccc1)n1cc(-c2ccccc2F)nn1 (stereo not given)	14.7	3.97	7.33	14.1	13.4					
COc1nc2ccc(Br)cc2cc1C(c1ccccc1)n1cc(CO)nn1 (stereo not given)	15	11.5	3.23	0.25	4.65					
CCCc1cn(C(c2ccccc2)c2cc3cc(Br)ccc3nc2OC)nn1 (stereo not given)	11.3	0.85	11.2	-2.25	8.3					
COc1nc2ccc(Br)cc2cc1C(c1ccccc1)n1cc(-c2ccccc2)nn1 (stereo not given)	30.1	8.25	13.7	13.9	5.97					
COc1nc2ccc(Br)cc2cc1C(c1ccccc1)n1cc(-c2cccc(F)c2)nn1 (stereo not given)	15.5	6.84	12.7	9.04	14.6					
CCCCCCCc1cn(C(c2ccccc2)c2cc3cc(Br)ccc3nc2OC)nn1 (stereo not given)	16.6	0.17	10.5	9.7	4.42					
CCCCCCCCc1cn(C(c2ccccc2)c2cc3cc(Br)ccc3nc2OC)nn1 (stereo not given)	12.1	14.6	2.06	0.1	2.27					
COc1cccc2c1C(=O)c1c(O)c3c(c(O)c1C2=O)C[C@@](O)(C(=O)CO)C[C@@H]3O[C@H]1C[C@H](N)[C@H](O)[C@H](C)O1 [DOXORUBICIN]						96.1	83.3	86.7	75.6	74.1
